The results in this text go back to ChEMBL document CHEMBL3734726, “An abietane diterpene from Salvia cuspidata and some new derivatives are active against Trypanosoma cruzi” (Bioorg Med Chem Lett, 2015).

Broadly, the IC50 is the midpoint of a concentration-inhibition curve.

In brackets after ≈: the same amount, converted by molar mass. Activity calls are given as the source filed them. No cut-off for these calls is given here.

The nature of series [1]: Cytotoxicity against african green monkey Vero cells assessed as cell viability at 2 ug/ml after 24 hrs by eosin staining based microscopy. The settings on record: chlorocebus sabaeus, read-out: Activity.
Series [2] can be described thus: Cytotoxicity against african green monkey Vero cells assessed as cell viability at 10 ug/ml after 24 hrs by eosin staining based microscopy. Particulars: chlorocebus sabaeus, read-out: Activity.
The test system of series [3] is Trypanosoma cruzi. As to the kind of experiment: Antitrypanosomal activity against epimastigote stage of Trypanosoma cruzi Dm28c assessed as parasite viability at 5 ug/ml after 24 hrs by eosin exclusion based hemocytometry. The class given is functional.
The test system of series [4] is Trypanosoma cruzi. As to the kind of experiment: Antitrypanosomal activity against epimastigote stage of Trypanosoma cruzi Dm28c assessed as reduction in parasite viability at after 24 hrs by eosin exclusion based hemocytometry. The class given is functional, organism-based.
Series [5] concerns Trypanosoma cruzi. As to the kind of experiment: Antitrypanosomal activity against epimastigote stage of Trypanosoma cruzi Dm28c assessed as parasite viability at 1 ug/ml after 24 hrs by eosin exclusion based hemocytometry. The class given is functional.
Series [6] can be described thus: Cytotoxicity against african green monkey Vero cells assessed as cell viability at 5 ug/ml after 24 hrs by eosin staining based microscopy. The settings on record: chlorocebus sabaeus, read-out: Activity.
Series [7] relates to Trypanosoma cruzi. The experiment in a line: Trypanocidal activity against epimastigote stage of Trypanosoma cruzi Dm28c assessed as induction of vacuolization at 5 ug/ml after 48 hrs by lead citrate staining based microscopy. It is filed as functional, organism-based.
The test system of series [8] is Trypanosoma cruzi. As to the kind of experiment: Antitrypanosomal activity against epimastigote stage of Trypanosoma cruzi Dm28c assessed as parasite viability at 10 ug/ml after 24 hrs by eosin exclusion based hemocytometry. The class given is functional.
The nature of series [9]: Cytotoxicity against african green monkey Vero cells assessed as cell viability at 1 ug/ml after 24 hrs by eosin staining based microscopy. The settings on record: chlorocebus sabaeus, read-out: Activity.
The test system of series [10] is Trypanosoma cruzi. The experiment in a line: Antitrypanosomal activity against epimastigote stage of Trypanosoma cruzi Dm28c assessed as parasite viability at 2 ug/ml after 24 hrs by eosin exclusion based hemocytometry. It is filed as functional.

As for `CC(C)C1=C(O)C(=O)C2=C(C=C[C@@H]3[C@]24CCC[C@]3(C)C(=O)OC4)C1=O`, the viability at 24 h, 2 ug/ml in [1] is 99.5%. Further, the viability at 24 h, 10 ug/ml in series [2] is 88.4%. The Parasite viability was determined as 49.7% in the series with Trypanosoma cruzi [3], 99.2% in the series with Trypanosoma cruzi [5], 16.3% in the series with Trypanosoma cruzi [8] and 76.4% in the series on Trypanosoma cruzi [10]. Further, the IC50 with Trypanosoma cruzi [4] came to 5 µg/mL (≈ 14.6 µM). Also, the viability at 24 h, 5 ug/ml in [6] is 98.8%. Besides, the outcome with Trypanosoma cruzi [7] was Active. Besides, in series [9], the viability at 24 h, 1 ug/ml came to 99.2%.

Turning to `C=CCOC1=C(C(C)C)C(=O)C2=C(C1=O)[C@]13CCC[C@](C)(C(=O)OC1)[C@@H]3C=C2`, the viability at 24 h, 2 ug/ml in series [1] was 99.6%. Further, the viability at 24 h, 10 ug/ml in series [2] stood at 85.5%. Besides, the Parasite viability with Trypanosoma cruzi [3] is listed as 29.5%; with Trypanosoma cruzi [5], 85.5%; in the series with Trypanosoma cruzi [8], 18.3%; in the series on Trypanosoma cruzi [10], 65.5%. The viability at 24 h, 5 ug/ml in [6] was determined as 99.1%. Further, the viability at 24 h, 1 ug/ml in [9] turned out to be 99.8%.

With `CC(=O)OC1=C(C(C)C)C(=O)C2=C(C1=O)[C@]13CCC[C@](C)(C(=O)OC1)[C@@H]3C=C2`, in [1], the viability at 24 h, 2 ug/ml was 99.7%. Moreover, in series [2], the viability at 24 h, 10 ug/ml came to 92.4%. Besides, the Parasite viability with Trypanosoma cruzi [3] turned out to be 39.5%; in the series on Trypanosoma cruzi [5], 99.2%; in the series on Trypanosoma cruzi [8], 16.3%; in the series with Trypanosoma cruzi [10] it was 89.5%. For the same molecule, the viability at 24 h, 5 ug/ml in series [6] turned out to be 99.2%. Besides, in [9], the viability at 24 h, 1 ug/ml was 99.8%.

On to `CC(C)C1=C(O[Si](C)(C)C)C(=O)C2=C(C=C[C@@H]3[C@]24CCC[C@]3(C)C(=O)OC4)C1=O`, for which the viability at 24 h, 2 ug/ml in series [1] worked out at 99.6%. Also, in [2], the viability at 24 h, 10 ug/ml was 83.6%. Besides, the Parasite viability with Trypanosoma cruzi [3] is 29.5%; in the series on Trypanosoma cruzi [5] it was 85.5%; with Trypanosoma cruzi [8] it was 15.3%; with Trypanosoma cruzi [10], 49.5%. In the series with Trypanosoma cruzi [4], the half-inhibitory concentration (IC50) was found to be 2 µg/mL (≈ 4.82 µM). Also, the viability at 24 h, 5 ug/ml in series [6] was 99.1%. In [9], the viability at 24 h, 1 ug/ml is 99.7%.
